The values that follow are results of earlier work, collected in patent US10052352B2, “Therapeutic application of parenteral krill oil” (STABLE SOLUTIONS LLC, priority 2011, dated 2018).

For the data set the following is noted: free acid.

In the case of `O=C(c1ccccc1)c1ccc2n1CCC2C(=O)O` (stereo not shown) [ketorolac], the water solubility entry was “highly water insoluble”.
